Assay [1] has as its system Nrf2-/- mice under AMI/R injury. The experiment in a line: LAD-induced AMI/R in Nrf2-/- mice. The format is in vivo, mouse. The procedure: The experimental procedures and protocols were approved by the Committee on Ethical USE of Animals of International Institute for Translational Chinese Medicine, Guangzhou University of Chinese Medicine (No. IITCM-20180115). Adult male C57BL/6 mice were purchased from the Laboratory Animal Center, Sun Yat-Sen University (Guangzhou, Guangdong, China), and Nrf2 knockout mice were obtained from Riken. Adult male C57BL/6 or Nrf2 knockout mice were treated with 30 mg/kg PBA or an equal volume of vehicle 15 min prior to reperfusion. Mice were divided into 6 groups: (1) Wild-type sham (n = 10): C57BL/6 mice received vehicle, as the sham group; (2) Wild-type AMI/R group (n = 10): C57BL/6 mice received vehicle (i.p.) 15 min before reperfusion; (3) Wild-type AMI/R plus PBA group (n = 10): C57BL/6 mice received 30 mg/kg PBA (i.p.) 15 min before reperfusion; (4) Nrf2 knockout sham (n = 8) : Nrf2 knockout mice received vehicle (i.p.), as in the sham group; (5) Nrf2 knockout AMI/R group (n = 8): Nrf2 knockout mice received vehicle (i.p.) 15 min before reperfusion; (6) Nrf2 knockout AMI/R plus PBA group (n = 8): Nrf2 knockout mice received 30 mg/kg PBA (i.p.) 15 min before reperfusion. PBA was dissolved in 0.9% NaCl buffer containing 2% EtOH. The vehicle was 0.9% NaCl buffer containing 2% EtOH.
The C57BL/6 mice or Nrf2 knockout mice underwent myocardial ischemia-reperfusion injury as described previously. In brief, mice were anaesthetized by i.p. injection of sodium pentobarbital at a dose of 50 mg/kg and ventilated under a pressure-control VentStar R415 ventilator (RWD Life Science Inc., Shenzhen, China). Following thoracotomy between the 3rd and 4th intercostal spaces, the mouse heart was exposed. The LAD was ligated with an 8-0 silk suture and the PE10 tube for 30 min. PBA and vehicle were i.p. injected 15 min prior to reperfusion. After 30 min of ischemia, the suture with PE10 tube was removed. At the end of 24 h of reperfusion, the LAD was relegated, and 1% Evans blue dye was injected to measure the area at risk (AAR). The hearts of the mice were collected, and frozen at -80 °C for 10 min and cut into 5 slices. The slices were incubated with 1% 2,3,5-triphenyltetrazolium chloride (TTC, Santa Cruz, USA) at 37 °C for 15 min and fixed with 4% paraformaldehyde overnight. The slices were captured and the areas of AAR and IA were quantified by using ImageJ software.
Hemodynamic measurements were performed using a PV-loop catheter (Transonic Systems Inc., Ithaca, NY, USA). Hemodynamic measurements were analysed using Ponemah 7700 modules software according to a standardized protocol. The maximum rate of rise of left ventricular pressure increase (+dp/dtmax) and the maximum rate of rise of left ventricular pressure decrease (-dp/dtmax) were calculated for all mice.

Another assay deals with HO-1 and NQO1. The experiment in a line: HO-1 and NQO1 protein expression, H9c2. The format is cell-based, rat. The note with it: H9c2 cells, 24 h, dose-dependent. How it is done:
Total protein was isolated from H9c2 cells, primary mouse cardiomyocytes, RAW264.7 cells and heart tissue using 1X RIPA buffer containing phosphatase and proteinase inhibitors at 4 °C. After measurement of the concentration, the cell lysates were separated by sodium dodecyl sulphate polyacrylamide gel electrophoresis (SDS-PAGE) and transferred to polyvinylidene fluoride (PVDF) membranes. The membranes were blocked in Tris-buffered saline-Tween 20 (TBST) buffer with 5% BSA for 1 h and incubated with primary antibodies (1:1000 dilution) overnight at 4 °C. After the membranes was washed by TBST buffer for three times, they were incubated with horseradish peroxidase (HRP)-conjugated secondary mouse or rabbit antibodies (1:3,000 dilution) at room temperature (RT) for 1.5 h and then detected by SuperEnhanced chemiluminescence (ECL) reaction reagents (GBCBIO Technologies Inc., Guangzhou, Guangdong, China). In brief, drop evenly the ECL working liquid onto the membrane at the ratio of 1 mL ECL working liquid and 10 cm^2 of membrane. After letting the membranes stand for 1-2 min, the bands of the respective proteins were detected with the exposure time of 10 ~60 s.

The next assay concerns OGD/R-induced H9c2 cells. In words: OGD/R-induced injury, MTT viability, H9c2. The format is cell-based, rat. The note with it: H9c2, 10 and 30 μM, OGD 6 h, reperfusion 18 h. How it is done:
For OGD/R treatment, H9c2 cells were washed twice with phosphate buffered saline (PBS). The medium was changed to glucose and serum free DMEM, and H9c2 cells were incubated in an incubator with 95% N2 and 5% CO2 at 37 °C. After 6 h, the medium was replaced with DMEM containing 10% FBS and 1% PS. Then H9c2 cells were returned to a normal incubator with 5% CO2 balanced with air at 37 °C for the indicated time.
Cell viability was determined by MTT assays. PBA was prepared to a stock solution dissolved in dimethyl sulfoxide (DMSO). RAW264.7, H9c2 cells, primary mouse cardiomyocytes were treated with different doses of PBA, and DMSO only as control for 48 h for the toxicity. In addition, H9c2 cells or primary mouse cardiomyocytes were treated with the indicated doses of PBA, diazoxide as positive control, DMSO only as control, then cultured with or without OGD/R treatment. At the end of the experiments, MTT was added into each well at the concentration of 0.5 mg/ml, and incubated at 37 °C for 4 h. After removal of the supernatant, 150 μL of DMSO was added to solubilize the formazan products. And the solution was measured at the absorbance of 490 nm by a spectrophotometer (Thermo Fisher Scientific, MA, USA). The results of the MTT assay in all groups were normalized to the control group with DMSO only treatment.

SMILES strings stand for the structures.

Take `C=C(COC(=O)C=Cc1ccc(O)c(O)c1)C(O)COC1OC(CO)C(O)C(O)C1O` (stereo not shown) [PBA, pubescenoside A]: the “inflammatory cells infiltration and disturbed myofibrillar structure (H&E staining)” value in assay [1] is recorded as “could not suppress”. Also, in assay [1] (30 mg/kg i.p., AMI/R), the cardioprotective effect result is “disappeared”; the “decrease effect of CK-MB level” value is “blocked”; the “increase effect of -dp/dtmax and -dp/dtmax” value is recorded as “blocked”. Also, the “suppressive effect on the NLRP3 inflammasome in heart tissue” value in assay [1] (WB analysis) is listed as “blocked”. The “HO-1 and NQO1 expression at the protein level” value in the assay on HO-1 and NQO1 is recorded as “increased”. In addition, in the assay with OGD/R-induced H9c2 cells, the “protection against OGD/R induced injury (cell viability, MTT)” value is recorded as “protected”.

Values taken from article PMC7738871, “Covalent modification of Keap1 at Cys77 and Cys434 by pubescenoside a suppresses oxidative stress-induced NLRP3 inflammasome activation in myocardial ischemia-reperfusion injury” (Theranostics, 2021).
